Results reported in PubChem BioAssay AID1918993 (Molecular Pharmacology Branch, DTP, NCI, 2023).
Values belong to the compound of their own block, whether it stands above or below them.

Test system: 233499-124-R-J3-PDC complex spheroid growth
Test: Anticancer human tumor 233499-124-R-J3-PDC patient-derived colon adenocarcinoma cell line growth inhibition [AhR]
Details: for IC50: curve of first compound; for viability, T/C: stronger effect = lower value
Excerpt: Multicellular complex tumor spheroid response to aryl hydrocarbon receptor antagonists in combination with a variety of drugs and investigational agents in selected tumor cell lines
The current study was undertaken to assess response to aryl hydrocarbon receptor antagonists in combination with standard-of-care drugs and investigational agents in solid tumor complex spheroid models. Complex spheroids include a stromal component modeled by human endothelial cells (HUVEC) and fibroblasts modeled by human mesenchymal stem cells (MSCs). The concentration ranges selected for each drug and investigational agent were based upon clinically achievable concentrations if the clinical Cmax of the agent was known.
Compounds. The drugs and investigational agents: BAY 2416964 (NSC825713), GNF351 (NSC835774), CH-223191 (NSC835775), CPI-455 (NSC825282), aza-TdCyd (NSC777586), decitabine (NSC127716), belinostat (NSC758774), entinostat (NSC756642), pevonedistat (NSC761192), tazemetostat (NSC777109), talazoparib (NSC765396), olaparib (NSC753686), selinexor (NSC780203), nedisertib (M3814, NSC802822), bortezomib (NSC756655), venetoclax (NSC766270), doxorubicin (NSC123127), elimusertib (BAY189344, NSC800525), ceralasertib (AZD6738, NSC777638), TAK-243 (NSC785004), alisertib (NSC759677), etoposide (NSC141540), topotecan (NSC609699), eribulin (NSC707389), gemcitabine (NSC613327), carboplatin (NSC241240), cisplatin (NSC119875), and SN-38 (NSC673596) were obtained from the National Cancer Institute (NCI) Developmental Therapeutics Program Chemical Repository (32). The FDA-approved anticancer drug set is available from the Developmental Therapeutics Program at https://dtp.cancer.gov/organization/dscb/obtaining/available plates.htm. […] The stock solutions were prepared in dimethyl sulfoxide (DMSO, Sigma-Aldrich, St. Louis, MO, cat. D2650), except for the platinum compounds which were prepared in saline (Quality Biological, Gaithersburg, MD, cat. 114-055-101), at 800-fold the tested concentration and stored at -70 degrees C prior to their use. All drugs and investigational agents were tested over a range starting from a high concentration at or near the clinical Cmax and decreasing in half-log increments. If the clinical Cmax for an agent had not been determined, the highest concentration tested was 10 microM (Table 1).
Cell Culture. All cells were maintained in an incubator at 37 degrees C and 5% CO2 with 95% humidity. The PDC lines were cultured according to standard operating procedures established by the NCI PDMR (https://pdmr.cancer.gov). Briefly, all PDCs were thawed and cultured in Matrigel-coated flasks prepared with a working solution of 1X Ham's F-12 nutrient mix, without supplementation (Invitrogen, Waltham, MA, cat. 11765054), 100 U/mL penicillin-streptomycin (Invitrogen, cat. 15140122), and 2.5% Matrigel (Corning Inc., Corning, NY, cat. 354248) for the first three passages. All PDCs were cultured in complete DMEM/F-12 media containing advanced DMEM/F-12 (Invitrogen, cat. 12634028), 4.9% defined fetal bovine serum, heat inactivated (HyClone Laboratories Inc., Logan, UT, cat. SH30070.03HI), 389 ng/mL hydrocortisone (Sigma-Aldrich, cat. H4001), 9.7 ng/mL human EGF recombinant protein (Invitrogen, cat. PHG0313), 23.4 microg/mL adenine (Sigma-Aldrich, cat. A2786), 97.3 U/mL penicillin-streptomycin (Invitrogen, cat. 15140122), 1.9 mM L-glutamine (Invitrogen, cat. 25030081), and 9.7 microM Y-27632 dihydrochloride (Tocris Bioscience, Bristol, United Kingdom, cat. 1254). The PDCs were cultured in complete DMEM/F12 media without 10 microM Y-27632 dihydrochloride for at least two passages prior to the screen. The established cell lines NCI-H1341 and […] were cultured in DMEM/F-12, HEPES (Invitrogen, cat. 11330032), 5% defined fetal bovine serum (HyClone Laboratories Inc., cat. SH30070.03), ITS premix universal culture supplement [insulin (5 microg/mL), transferrin (5 microg/mL), and selenious acid (5 ng/mL)] […]

[1] = second compound 0.1 µM, first compound 0.0316 µM
[2] = second compound 0.1 µM, first compound 0.1 µM
[3] = second compound 0.1 µM, first compound 0.316 µM
[4] = second compound 0.1 µM, first compound 1 µM
[5] = second compound 0.316 µM, first compound 0.0316 µM
[6] = second compound 0.316 µM, first compound 0.1 µM
[7] = second compound 0.316 µM, first compound 0.316 µM
[8] = second compound 0.316 µM, first compound 1 µM
[9] = second compound 1 µM, first compound 0.0316 µM
[10] = second compound 1 µM, first compound 0.1 µM
[11] = second compound 1 µM, first compound 0.316 µM
[12] = second compound 1 µM, first compound 1 µM
[13] = second compound 3.16 µM, first compound 0.0316 µM
[14] = second compound 3.16 µM, first compound 0.1 µM
[15] = second compound 3.16 µM, first compound 0.316 µM
[16] = second compound 3.16 µM, first compound 1 µM
[17] = second compound 10 µM, first compound 0.0316 µM
[18] = second compound 10 µM, first compound 0.1 µM
[19] = second compound 10 µM, first compound 0.316 µM
[20] = second compound 10 µM, first compound 1 µM
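Further: spheroids exposed to agents for seven days before reading.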

- IC50 (second compound 0.1 µM): 8.47 nM
- IC50 (second compound 0.316 µM): 8.01 nM
- IC50 (second compound 1 µM): 6.87 nM
- IC50 (second compound 3.16 µM): 6.12 nM
- IC50 (second compound 10 µM): 4.96 nM
SMILES: CC(C)CC(NC(=O)C(Cc1ccccc1)NC(=O)c1cnccn1)B(O)O (stereo not given) + CC(CO)NC(=O)c1cc(-c2ccc(Cl)cc2)nn(-c2cnn(C)c2)c1=O
- viability, T/C (second compound 0.1 µM, first compound 0.000949 µM): 92.4%
- viability, T/C (second compound 0.1 µM, first compound 0.003 µM): 102%
- viability, T/C (second compound 0.1 µM, first compound 0.00949 µM): 44.9%
- viability, T/C (second compound 0.1 µM, first compound 0.03 µM): 0.09%
- viability, T/C (second compound 0.1 µM, first compound 0.0949 µM): 0.09%
- viability, T/C (second compound 0.1 µM, first compound 0.3 µM): 0.2%
- viability, T/C (second compound 0.316 µM, first compound 0.000949 µM): 92.1%
- viability, T/C (second compound 0.316 µM, first compound 0.003 µM): 93.2%
- viability, T/C (second compound 0.316 µM, first compound 0.00949 µM): 42.6%
- viability, T/C (second compound 0.316 µM, first compound 0.03 µM): 0.13%
- viability, T/C (second compound 0.316 µM, first compound 0.0949 µM): 0.04%
- viability, T/C (second compound 0.316 µM, first compound 0.3 µM): 0.12%
- viability, T/C (second compound 1 µM, first compound 0.000949 µM): 102%
- viability, T/C (second compound 1 µM, first compound 0.003 µM): 100%
- viability, T/C (second compound 1 µM, first compound 0.00949 µM): 30.6%
- viability, T/C (second compound 1 µM, first compound 0.03 µM): 0.08%
- viability, T/C (second compound 1 µM, first compound 0.0949 µM): 0.05%
- viability, T/C (second compound 1 µM, first compound 0.3 µM): 0.12%
- viability, T/C (second compound 3.16 µM, first compound 0.000949 µM): 84.5%
- viability, T/C (second compound 3.16 µM, first compound 0.003 µM): 88.8%
- viability, T/C (second compound 3.16 µM, first compound 0.00949 µM): 27.5%
- viability, T/C (second compound 3.16 µM, first compound 0.03 µM): 0.1%
- viability, T/C (second compound 3.16 µM, first compound 0.0949 µM): 0.13%
- viability, T/C (second compound 3.16 µM, first compound 0.3 µM): 0.12%
- viability, T/C (second compound 10 µM, first compound 0.000949 µM): 66.5%
- viability, T/C (second compound 10 µM, first compound 0.003 µM): 84.2%
- viability, T/C (second compound 10 µM, first compound 0.00949 µM): 17.2%
- viability, T/C (second compound 10 µM, first compound 0.03 µM): 0.18%
- viability, T/C (second compound 10 µM, first compound 0.0949 µM): 0.12%
- viability, T/C (second compound 10 µM, first compound 0.3 µM): 0.18%

- IC50 (second compound 0.1 µM): > 1000 nM
- IC50 (second compound 0.316 µM): > 1000 nM
- IC50 (second compound 1 µM): > 1000 nM
- IC50 (second compound 3.16 µM): > 1000 nM
- IC50 (second compound 10 µM): < 3.16 nM
SMILES: Nc1ncn(C2CC(O)C(CO)O2)c(=O)n1 (stereo not given) + Cc1cncc(-c2nc(NCCc3c[nH]c4ccccc34)c3ncn(C(C)C)c3n2)c1
- viability, T/C (second compound 0.1 µM, first compound 0.00316 µM): 97.4%
- viability, T/C (second compound 0.1 µM, first compound 0.01 µM): 85%
- viability, T/C [1]: 91.3%
- viability, T/C [2]: 88%
- viability, T/C [3]: 87.8%
- viability, T/C [4]: 81.2%
- viability, T/C (second compound 0.316 µM, first compound 0.00316 µM): 88.8%
- viability, T/C (second compound 0.316 µM, first compound 0.01 µM): 89.8%
- viability, T/C [5]: 84.6%
- viability, T/C [6]: 84%
- viability, T/C [7]: 87.4%
- viability, T/C [8]: 96.9%
- viability, T/C (second compound 1 µM, first compound 0.00316 µM): 82.9%
- viability, T/C (second compound 1 µM, first compound 0.01 µM): 83.9%
- viability, T/C [9]: 86.8%
- viability, T/C [10]: 81%
- viability, T/C [11]: 82.9%
- viability, T/C [12]: 93.4%
- viability, T/C (second compound 3.16 µM, first compound 0.00316 µM): 82.7%
- viability, T/C (second compound 3.16 µM, first compound 0.01 µM): 76.2%
- viability, T/C [13]: 82.4%
- viability, T/C [14]: 81%
- viability, T/C [15]: 76.5%
- viability, T/C [16]: 88.6%
- viability, T/C (second compound 10 µM, first compound 0.00316 µM): 16.3%
- viability, T/C (second compound 10 µM, first compound 0.01 µM): 26.8%
- viability, T/C [17]: 36.8%
- viability, T/C [18]: 44.8%
- viability, T/C [19]: 21.5%
- viability, T/C [20]: 26.4%

- IC50 (second compound 0.1 µM): > 10000 nM
- IC50 (second compound 0.316 µM): > 10000 nM
- IC50 (second compound 1 µM): > 10000 nM
- IC50 (second compound 3.16 µM): > 10000 nM
- IC50 (second compound 10 µM): > 10000 nM
SMILES: O=C(c1cc(Cc2n[nH]c(=O)c3ccccc23)ccc1F)N1CCN(C(=O)C2CC2)CC1 + CC(CO)NC(=O)c1cc(-c2ccc(Cl)cc2)nn(-c2cnn(C)c2)c1=O
- viability, T/C [1]: 92.2%
- viability, T/C [2]: 112%
- viability, T/C [3]: 102%
- viability, T/C [4]: 103%
- viability, T/C (second compound 0.1 µM, first compound 3.16 µM): 97.6%
- viability, T/C (second compound 0.1 µM, first compound 10 µM): 103%
- viability, T/C [5]: 99.9%
- viability, T/C [6]: 92.2%
- viability, T/C [7]: 95.1%
- viability, T/C [8]: 102%
- viability, T/C (second compound 0.316 µM, first compound 3.16 µM): 91.2%
- viability, T/C (second compound 0.316 µM, first compound 10 µM): 104%
- viability, T/C [9]: 91.1%
- viability, T/C [10]: 98.9%
- viability, T/C [11]: 102%
- viability, T/C [12]: 101%
- viability, T/C (second compound 1 µM, first compound 3.16 µM): 89.2%
- viability, T/C (second compound 1 µM, first compound 10 µM): 109%
- viability, T/C [13]: 100%
- viability, T/C [14]: 84%
- viability, T/C [15]: 105%
- viability, T/C [16]: 87.6%
- viability, T/C (second compound 3.16 µM, first compound 3.16 µM): 94.9%
- viability, T/C (second compound 3.16 µM, first compound 10 µM): 89.7%
- viability, T/C [17]: 90.1%
- viability, T/C [18]: 90%
- viability, T/C [19]: 80.8%
- viability, T/C [20]: 85%
- viability, T/C (second compound 10 µM, first compound 3.16 µM): 85.5%
- viability, T/C (second compound 10 µM, first compound 10 µM): 67.5%
